The values that follow come from patent US8415475B2, “Antibacterial quinoline derivatives” (Janssen Pharmaceutica N.V., priority 2006, dated 2013).

Series [1] deals with Escherichia coli (ATCC35218). The series is described as follows: In-vitro anti-bacterial microtitre plate assay, IC90, E. coli. As to conditions: 90% inhibitory concentration for bacterial growth, resazurin fluorescence; for IC90: Escherichia coli, ATCC35218, 24 h, read-out: IC90 values ECO 35218. It counts as cell-based. How it is done: (§1) D.3. In-Vitro Method for Testing Compounds for Anti-Bacterial Activity Against Various Non-Mycobacterial Strains The bacteria used in this study were grown overnight in flasks containing 100 ml Mueller-Hinton Broth (Becton Dickinson-cat. no. 275730) in sterile de-ionized water, with shaking, at 37° C. Stocks (0.5 ml/tube) were stored at -70° C. until use. Bacteria titrations were performed in microtiter plates to detect the TCID50, in which the TCID50 represents the dilution that gives rise to bacterial growth in 50% of inoculated cultures. In general, an inoculum level of approximately 100 TCID50 was used for susceptibility testing. Flat-bottom, sterile 96-well plastic microtiter plates were filled with 180 μl of sterile deionized water, supplemented with 0.25% BSA. Subsequently, stock solutions (7.8× final test concentration) of compounds were added in 45 μl volumes in column 2. Serial five-fold dilutions (45 μl in 180 μl) were made directly in the microtiter plates from column 2 to reach column 11. Untreated control samples with (column 1) and without (column 12) inoculum were included in each microtiter plate. Depending on the bacteria type, approximately 10 to 60 CFU per well of bacteria inoculum (100 TCID50), in a volume of 100 μl in 2.8× Mueller-Hinton broth medium, was added to the rows […]. The same volume of broth medium without inoculum was added to column 12 in row A to H. The cultures were incubated at 37° C. for 24 hours under a normal atmosphere (incubator with open air valve and continuous ventilation). At the end of incubation, one day after inoculation, the bacterial growth was quantitated fluorometrically. Therefore resazurin (0.6 mg/ml) was added in a volume of 20 μl to all wells 3 hours after inoculation, and the plates were re-incubated overnight. A change in colour from blue to pink indicated the growth of bacteria. The fluorescence was read in a computer-controlled fluorometer (Cytofluor Biosearch) at an excitation wavelength of 530 nm and an emission wavelength of 590 nm. The % growth inhibition achieved by the compounds was calculated according to standard methods.
For orientation: The colour change of resazurin is a common sign of viable cells or microbes.

The subject of series [2] is Streptococcus pneumoniae (ATCC6305). Kind of series: In-vitro anti-bacterial microtitre plate assay, IC90, S. pneumoniae. Type of series: cell-based. The following applies: 90% inhibitory concentration for bacterial growth, resazurin fluorescence; for IC90 values SPN 1 6305: 24 hours. How it is done: as §1
Series [3] relates to Enterococcus faecalis (ATCC29212). Kind of series: In-vitro anti-bacterial microtitre plate assay, IC90, E. faecalis. Type of series: cell-based. The following applies: 90% inhibitory concentration for bacterial growth, resazurin fluorescence; for IC90 values EFA 29212: 24 hours. How it is done: as §1
The test system of series [4] is Pseudomonas aeruginosa (ATCC27853). The series is described as follows: In-vitro anti-bacterial microtitre plate assay, IC90, P. aeruginosa. It counts as cell-based. The following applies: 90% inhibitory concentration for bacterial growth, resazurin fluorescence; for IC90 values PAE 27853: 24 hours. How it is done:
as §1

Series [5] deals with Staphylococcus aureus (ATCC29213). The series is described as follows: In-vitro anti-bacterial microtitre plate assay, IC90, S. aureus. Type of series: cell-based. The following applies: 90% inhibitory concentration for bacterial growth, resazurin fluorescence; for IC90 values STA 1 B29213: 24 hours. How it is done:
as §1

Series [6] relates to Streptococcus pyogens (ATCC8668). Kind of series: In-vitro anti-bacterial microtitre plate assay, IC90, S. pyogens. It counts as cell-based. The following applies: 90% inhibitory concentration for bacterial growth, resazurin fluorescence; for IC90 values SPY 8668: 24 hours. The procedure: as §1
Another series concerns M. Smegmatis (ATCC607). Kind of series: In-vitro anti-bacterial activity against strain M. smegmatis ATCC607. Type of series: cell-based. As to conditions: 90% inhibitory concentration for bacterial growth, Alamar Blue fluorescence; for IC90: Mycolicibacterium smegmatis, ATCC607, 48 h, read-out: IC90 values MSM 1 ATCC607. How it is done: D.2. In-Vitro Method for Testing Compounds for Anti-Bacterial Activity Against Strain M. smegmatis ATCC607. Flat-bottom, sterile 96-well plastic microtiter plates were filled with 180 μl of sterile deionized water, supplemented with 0.25% BSA. Subsequently, stock solutions (7.8× final test concentration) of compounds were added in 45 μl volumes to a series of duplicate wells in column 2 so as to allow evaluation of their effects on bacterial growth. Serial five-fold dilutions (45 μl in 180 μl) were made directly in the microtiter plates from column 2 to 11 using a customised robot system (Zymark Corp., Hopkinton, Mass.). Pipette tips were changed after every 3 dilutions to minimize pipetting errors with high hydrophobic compounds. Untreated control samples with (column 1) and without (column 12) inoculum were included in each microtiter plate. Approximately 250 CFU per well of bacteria inoculum, in a volume of 100 μl in 2.8× Mueller-Hinton broth medium, was added to the rows […]. The same volume of broth medium without inoculum was added to column 12 in row A to H. The cultures were incubated at 37° C. for 48 hours in a humidified 5% CO2 atmosphere (incubator with open air valve and continuous ventilation). At the end of incubation, two days after inoculation, the bacterial growth was quantitated fluorometrically. Therefore Alamar Blue (10×) was added to all wells in a volume of 20 μl and plates were incubated for another 2 hours at […] The fluorescence was read in a computer-controlled fluorometer (Cytofluor, Biosearch) at an excitation wavelength of 530 nm and an emission wavelength of 590 nm (gain 30).

In series [7] the test system is Mycobacterium tuberculosis (strain H37RV). Kind of series: In-vitro method for testing compounds against M. tuberculosis. It counts as cell-based. As to conditions: 90% inhibitory concentration for bacterial growth, 7 days, Middlebrook broth, resazurin fluorescence.

Converted amounts (≈) assume the structure as drawn.

A word on the IC90: it is the concentration needed for an effect of 90%. Usually melting point stands for the temperature of the solid-liquid transition. On to `CO/N=C/c1ccc2nc(OC)c(C(c3ccccc3)C(O)(CCN(C)C)c3cccc4ccccc34)cc2c1` (single isomer, unassigned) [Compound 25], for which the melting point was 228 °C. In [1], the IC90 amounted to 53.4 µg/mL (≈ 100 µM). Further, the “IC90 values SPN 1 6305” value in series [2] is 2.1 µg/mL (≈ 3.94 µM). In [3], the “IC90 values EFA 29212” value worked out at 8.46 µg/mL (≈ 15.9 µM). Moreover, the “IC90 values PAE 27853” value in series [4] turned out to be 8.46 µg/mL (≈ 15.9 µM). Further, the “IC90 values STA 1 B29213” value in series [5] came out at 8.5 µg/mL (≈ 15.9 µM). Further, the “IC90 values SPY 8668” value in series [6] worked out at 8.46 µg/mL (≈ 15.9 µM). Further, in the series with M. Smegmatis (ATCC607), the IC90 was determined as 0.3 µg/mL (≈ 0.562 µM). In addition, the “IC90 values MTB 1 H37RV” value in series [7] came to 1.7 µg/mL (≈ 3.19 µM).

Turning to `CO/N=C/c1ccc2nc(OC)c(C(c3ccccc3)C(O)(CCN(C)C)c3cccc4ccccc34)cc2c1` (single isomer, unassigned) [Compound 26], the melting point was 170 °C. For the same compound, the “IC90 values ECO 35218” value in [1] (24 hours) was 53.37 µg/mL (≈ 100 µM). Further, the “IC90 values SPN 1 6305” value in series [2] came out at 18.9 µg/mL (≈ 35.4 µM). In addition, in series [3], the “IC90 values EFA 29212” value amounted to 53.37 µg/mL (≈ 100 µM). In addition, the “IC90 values PAE 27853” value in series [4] amounted to 53.37 µg/mL (≈ 100 µM). In addition, the “IC90 values STA 1 B29213” value in [5] came out at 53.4 µg/mL (≈ 100 µM). The “IC90 values SPY 8668” value in series [6] worked out at 53.37 µg/mL (≈ 100 µM). In the series on M. Smegmatis (ATCC607) (48 hours), the “IC90 values MSM 1 ATCC607” value was 0.3 µg/mL (≈ 0.562 µM). For the same compound, in series [7], the “IC90 values MTB 1 H37RV” value was found to be 8.5 µg/mL (≈ 15.9 µM).

In turn, `COc1nc2ccc(N3CCOCC3)cc2cc1C(c1ccccc1)C(O)(CCN(C)C)c1cccc2ccccc12` (single isomer, unassigned) [Compound 30] showed a melting point of 210 °C. Also, the IC90 in [1] came out at 56.2 µg/mL (≈ 100 µM). The IC90 in [2] (Streptococcus pneumoniae, ATCC6305, 24 h, read-out: IC90 values SPN 1 6305) turned out to be 14.1 µg/mL (≈ 25.1 µM). The IC90 in [3] (Enterococcus faecalis, ATCC29212, 24 h, read-out: IC90 values EFA 29212) was found to be 44.6 µg/mL (≈ 79.4 µM). For the same compound, the IC90 in [4] (Pseudomonas aeruginosa, ATCC27853, 24 h, read-out: IC90 values PAE 27853) was determined as 22.4 µg/mL (≈ 39.8 µM). For the same compound, the concentration for an effect of 90% (IC90) in series [5] (Staphylococcus aureus, ATCC29213, 24 h, read-out: IC90 values STA 1 B29213) stood at 44.6 µg/mL (≈ 79.4 µM). In addition, the IC90 in series [6] (Streptococcus, ATCC8668, 24 h, read-out: IC90 values SPY 8668) turned out to be 44.6 µg/mL (≈ 79.4 µM). The IC90 in the series on M. Smegmatis (ATCC607) amounted to 0.1 µg/mL (≈ 0.178 µM). For the same compound, in [7] (Mycobacterium tuberculosis, H37RV, 168 h, read-out: IC90 values MTB 1 H37RV), the IC90 amounted to 8.9 µg/mL (≈ 15.8 µM).
